Source: the NIST ThermoML archive (doi:10.1021/je049595u)

Tests used:
[1] = Molar enthalpy of transition or fusion; conditions: Crystal
[2] = molar heat capacity at saturation pressure

Cc1ccc2ccccc2n1 [2-methylquinoline]
Conditions	Molar enthalpy of transition or fusion [kcal/mol]	Triple point temperature [K]
Crystal	–	270.48
[1]	2.992	–

molar heat capacity [J/K/mol], [2], Vacuum adiabatic calorimetry
Conditions	Crystal	Liquid
5 K	0.46	–
5.565 K	0.62	–
6.404 K	0.956	–
7.354 K	1.4	–
8.354 K	1.96	–
9.372 K	2.64	–
10 K	3.14	–
10.39 K	3.48	–
11.53 K	4.41	–
12.8 K	5.65	–
14.21 K	7.09	–
15.75 K	8.78	–
17.46 K	10.78	–
19.36 K	13.04	–
20 K	13.79	–
21.49 K	15.56	–
23.83 K	18.39	–
26.43 K	21.5	–
29.31 K	24.82	–
30 K	25.6	–
32.52 K	28.38	–
36.12 K	32.14	–
39.68 K	35.64	–
40 K	35.96	–
43.66 K	39.34	–
48.56 K	43.53	–
50 K	44.72	–
52.54 K	46.74	–
53.49 K	47.45	–
53.98 K	47.92	–
57.46 K	50.56	–
58.64 K	51.46	–
60 K	52.34	–
60.03 K	52.29	–
63.2 K	54.47	–
64.47 K	55.29	–
69.56 K	58.68	–
70 K	58.93	–
76.52 K	62.82	–
80 K	64.8	–
84.08 K	67.08	–
89.02 K	69.74	–
90 K	70.27	–
92.31 K	71.48	–
97.21 K	73.97	–
100 K	75.42	–
101.28 K	76.06	–
106.32 K	78.59	–
110.83 K	80.82	–
116.09 K	83.37	–
120 K	85.27	–
125.97 K	88.15	–
135.92 K	92.98	–
140 K	94.96	–
145.89 K	97.82	–
155.92 K	102.78	–
160 K	104.8	–
166.03 K	107.81	–
176.22 K	112.93	–
180 K	114.86	–
187.41 K	118.71	–
190.57 K	120.24	–
199.53 K	125.07	–
200 K	125.32	–
205.56 K	128.27	–
211.51 K	131.45	–
220 K	135.9	–
222.27 K	136.99	–
223.47 K	137.78	–
223.49 K	138.03	–
235.04 K	144.29	–
235.46 K	144.65	–
239.04 K	146.8	–
240 K	147.3	–
241.52 K	148.31	–
247.49 K	151.95	–
250 K	–	205.2
250.7 K	154.08	–
251.78 K	–	205.82
256.02 K	–	207.51
257.75 K	159.11	–
259.67 K	160.66	–
260 K	160.12	209.03
261.22 K	161.55	–
263.55 K	–	210.39
270.48 K	167.45	212.97
272.7 K	–	213.77
277.13 K	–	215.45
278.52 K	–	216.02
280 K	–	216.58
285.4 K	–	218.72
286.61 K	–	219.19
294.19 K	–	222.16
298.15 K	–	223.78
300 K	–	224.52
300.52 K	–	224.72
310.63 K	–	228.85
320 K	–	232.73
327.13 K	–	235.7
340 K	–	241.04
343.64 K	–	242.54
360 K	–	249.4
360.17 K	–	249.47
376.73 K	–	256.39
380 K	–	257.77
393.31 K	–	263.29
400 K	–	266.05
409.82 K	–	270.1
420 K	–	274.27
426.33 K	–	276.86
439.48 K	–	282.23
440 K	–	282.48

Conditions	mass density [kg/m3]	molar heat capacity [J/K/mol]	vapor or sublimation pressure [kPa]
319.99 K, Liquid, Inclined piston gauge	–	–	0.0315
329.98 K, Liquid, Inclined piston gauge	–	–	0.063
339.99 K, Liquid, Inclined piston gauge	–	–	0.1198
349.98 K, Liquid, Inclined piston gauge	–	–	0.2174
364.98 K, Liquid, Inclined piston gauge	–	–	0.4962
374.98 K, Liquid, Inclined piston gauge	–	–	0.8233
384.97 K, Liquid, Inclined piston gauge	–	–	1.323
394.24 K, Liquid, Twin ebulliometer	–	–	2
394.97 K, Liquid, Inclined piston gauge	–	–	2.066
404.97 K, Liquid, Inclined piston gauge	–	–	3.141
411.02 K, Liquid, Twin ebulliometer	–	–	4
418.53 K, Liquid, Twin ebulliometer	–	–	5.333
429.68 K, Liquid, Twin ebulliometer	–	–	7.999
438.05 K, Liquid, Twin ebulliometer	–	–	10.67
444.81 K, Liquid, Twin ebulliometer	–	–	13.33
451.84 K, Liquid, Twin ebulliometer	–	–	16.66
457.68 K, Liquid, Twin ebulliometer	–	–	19.93
465.36 K, Liquid, Twin ebulliometer	–	–	25.02
473.1 K, Liquid, Twin ebulliometer	–	–	31.18
480.89 K, Liquid, Twin ebulliometer	–	–	38.56
488.72 K, Liquid, Twin ebulliometer	–	–	47.38
496.61 K, Liquid, Twin ebulliometer	–	–	57.82
504.55 K, Liquid, Twin ebulliometer	–	–	70.12
512.53 K, Liquid, Twin ebulliometer	–	–	84.53
520.57 K, Liquid, Twin ebulliometer	–	–	101.33
528.66 K, Liquid, Twin ebulliometer	–	–	120.79
536.8 K, Liquid, Twin ebulliometer	–	–	143.25
544.98 K, Liquid, Twin ebulliometer	–	–	169.02
553.22 K, Liquid, Twin ebulliometer	–	–	198.49
561.5 K, Liquid, Twin ebulliometer	–	–	232.02
569.83 K, Liquid, Twin ebulliometer	–	–	270.02
762.9 K, Gas, Measured as part of TC determination by DSC	163.3	–	–
773.9 K, Liquid, Measured as part of TC determination by DSC	410.8	–	–
775.2 K, Gas, Measured as part of TC determination by DSC	236.6	–	–
775.9 K, Liquid, Measured as part of TC determination by DSC	355.4	–	–
777.9 K, Gas, Measured as part of TC determination by DSC	292.9	–	–
[2], 460 K, Liquid	–	291.16	–
[2], 480 K, Liquid	–	299.73	–
[2], 500 K, Liquid	–	308.3	–
[2], 520 K, Liquid	–	316.87	–
[2], 540 K, Liquid	–	325.39	–
[2], 560 K, Liquid	–	333.78	–
[2], 580 K, Liquid	–	341.97	–
[2], 600 K, Liquid	–	349.93	–
[2], 620 K, Liquid	–	357.61	–
[2], 640 K, Liquid	–	365.01	–
[2], 660 K, Liquid	–	372.23	–
[2], 680 K, Liquid	–	379.58	–
[2], 700 K, Liquid	–	387.75	–

Conditions	Critical temperature, Liquid [K]	mass density, 323.14 K [kg/m3]	mass density, 348.14 K [kg/m3]	mass density, 373.12 K [kg/m3]	mass density, 398.12 K [kg/m3]	mass density, 423.11 K [kg/m3]	mass density, 448.11 K [kg/m3]	mass density, 473.11 K [kg/m3]	mass density, 498.11 K [kg/m3]	mass density, 523.11 K [kg/m3]
DTA	778	–	–	–	–	–	–	–	–	–
Liquid	–	1035.2	1015.9	996.1	973.9	952.8	931.9	910.8	888.8	865.1
